Several values for one entry are separate records, joined by “and”; a condition that tells them apart may be missing. Equal entries are not always repeated.
System: cross-bred pigs (Yorkshire×Landrace)
Assay: Induction of diabetes by streptozotocin infusion in pigs: fasting plasma glucose, food intake, urinary glucose and ketones
Format: in vivo, pig
Method: Experimental protocols describing the management, surgical procedures, and animal care were reviewed and approved by the ASG-Lelystad Animal Care and Use Committee (Lelystad, NL). Thirty-six cross-bred pigs (Yorkshire×Landrace) of approximately 30 kg BW at surgery were used in this study. Two weeks before surgery, the pigs were housed in metabolism cages (1.15×1.35 m) and adapted to the fight/dark cycle and the feeding regimen. Lights were on and off at 05:00 and 22:00 hours, respectively. Ambient room temperature was 20° C.
STZ (Pharmacia & Upjohn Company, Kalamazoo, Mich., USA) was dissolved in saline (1 g/10 mL) and administrated to pigs via the jugular vein by a continuous infusion over 30 minutes. STZ treatment (110, 130 or 150 mg/kg) was initiated four to five hours after the morning meal. During the first three days after STZ treatment, food was offered ad libitum in order to avoid hypoglycemia (Gäbel et al., 1985; Grussner et al., 1993). Over the following four days, the food was offered still ad libitum but now from 06:00 to 7:00 and from 15:00 to 16:00 hours to evaluate the food intake capacity in relation to 24-hour urinary glucose excretion of diabetic pigs. This was done first, to be sure that diabetic pigs consume their meals at the iso-energetic level of 1045 kJ ME/kg BW^0.75 per day and second, to underline the importance of iso-energetic feeding when 24-hour urinary glucose excretion is used as one of the parameters to quantify the efficacy of metformin in diabetic pigs. On day 8 post-STZ treatment, pigs were fed on a restricted and iso-energetic level of 1045 kJ ME/kg BW^0.75 per day throughout the study.
Plasma insulin concentration was measured using a Delfia assay (test kit No. B080-1101 by Perkin Elmer Life Sciences, trust by Wallac Oy, Turku, Finland). This specific pig insulin assay was validated using pig insulin standards. Plasma and urine glucose concentrations were analyzed enzymically on an autoanalyzer of Radiometer (ABL and AML, Copenhagen, Denmark). Urine was collected in buckets containing 0.5 grams Halamid-d (sodium-p-toluenesulfonchloramide, Akzo Nobel Chemicals, Amersfoort, NL) to prevent microbial breakdown of glucose. Urine volume was registered over a given interval in order to calculate the rate of urinary glucose excretion. Urine samples (0.5 mL) were stored at −20° C. for later glucose analyses. Ketones (acetoacetic acid) were determined in fresh urine by a reagent strip test (Ketostix, Bayer Diagnostics, Mijdrecht, NL).

CN(N=O)C(=O)N[C@H]1C(O)O[C@H](CO)[C@@H](O)[C@@H]1O (mixture of isomers) [STZ, streptozotocin]
Pigs with overnight fasting plasma glucose <10 mmol/L (no fasting hyperglycemia) (STZ 110 mg/kg BW, one week post STZ): two of six | Diabetic state (STZ 130 mg/kg): non-ketotic, moderately dyslipidemic, developed severe insulin resistance for glucose metabolism, maintained growth without insulin therapy | Pigs with fasting hyperglycemia (>10 mmol/L) (STZ 130 mg/kg): 20 of 23 | Pigs with overnight fasting plasma glucose <10 mmol/L (STZ 130 mg/kg BW, one week post STZ): three of 23 | Overnight fasting plasma glucose (STZ 150 mg/kg BW, all six pigs, one week post STZ): > 20 mmol/L | Diabetic state (STZ 150 mg/kg, all pigs): clear hyperglycemic, hypoinsulinemic, and ketotic diabetic state | Fasting urinary glucose excretion (factual) (STZ diabetic pigs fasted overnight, urine collected for eight hours): 2.3 ± 0.2 mg/kg/min and 2.3 mg/kg/min | Ketones in urine (STZ dose of 110 and 130 mg/kg, trace = 0.5 mmol/L): no or trace | Predicted fasting urinary glucose excretion (from intercept of linear regression and average body weight): 2.6 mg/kg/min | Fasting 24-hour urinary glucose excretion (intercept of regression) (linear regression y=0.33x+141): 141 g per day
